Test system: viral neuraminidase
Assay type: biochemical, influenza
Settings: pH 5.5

| Molecule | whether the substrate was cleaved and odorant released (decrease of the substrate signal and appearance of the cleavage products signal) |
| --- | --- |
| CC(=O)NC1C(O)CC(OCC2(C)CC2CC2CC3CC3(C)C2(C)C)(C(=O)O)OC1CC(O)CO [javanol, Sodium ([(1R,2S)-1-methyl-2-[[(1R,3S,5S)-1,2,2-trimethyl-3-bicyclo[3.1.0]hexanyl]methyl]cyclopropyl]methyl-5-acetamido-3,5-dideoxy-α-D-glycero-D-galacto-2-nonulopyranoside)onate] | substrate is still present |
| Sodium (4-(4-hydroxy-3-methoxyphenyl)butan-2-one-5-acetamido-3,5-dideoxy-α-D-glycero-D-galacto-2-nonulopyranoside)onate [zingerone] | significant loss of peak |

Source: patent US20120122079A1, “INFECTION DETECTION METHODS AND SYSTEMS AND RELATED COMPOUNDS AND COMPOSITIONS” (priority 2010, published 2012)
